From ChEMBL document CHEMBL3399996, “Marine natural products as inhibitors of cystathionine beta-synthase activity” (Bioorg Med Chem Lett, 2015)

biological target: T1, Cystathionine beta-synthase (Homo sapiens, UniProt P35520); test: Inhibition of full-length wild-type cystathionine beta-synthase (unknown origin) assessed as inhibition of H2S production by fluorescence assay in presence of S-adenosylmethionine
T1 sequence (P35520 whole entry): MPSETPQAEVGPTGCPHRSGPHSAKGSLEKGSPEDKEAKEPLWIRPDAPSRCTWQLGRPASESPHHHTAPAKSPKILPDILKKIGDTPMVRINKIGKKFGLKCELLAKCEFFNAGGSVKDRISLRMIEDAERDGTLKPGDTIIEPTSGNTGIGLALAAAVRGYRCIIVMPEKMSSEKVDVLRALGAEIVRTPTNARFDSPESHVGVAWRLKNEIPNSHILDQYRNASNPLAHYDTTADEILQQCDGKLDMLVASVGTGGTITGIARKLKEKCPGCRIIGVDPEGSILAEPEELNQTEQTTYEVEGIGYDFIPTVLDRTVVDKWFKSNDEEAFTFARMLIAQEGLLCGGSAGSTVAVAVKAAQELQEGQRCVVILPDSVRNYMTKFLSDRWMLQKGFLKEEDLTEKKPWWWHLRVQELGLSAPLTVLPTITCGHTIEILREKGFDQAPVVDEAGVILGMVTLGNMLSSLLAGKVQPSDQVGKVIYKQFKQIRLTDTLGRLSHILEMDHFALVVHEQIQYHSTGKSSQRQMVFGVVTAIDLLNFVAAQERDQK

| IC50 [µM] | Compound |
| --- | --- |
| 125 | O=C1NC(=S)N/C1=C\c1ccc(O)c(O)c1 |
| 87 | COc1cc(/C=C2\N=C(SC)N(C)C2=O)ccc1O |
| 83 | COc1cc(/C=C2\NC(=S)NC2=O)ccc1OC(C)=O |
| 108 | O=C1C=C(c2cc(Br)c(O)c(Br)c2)/C(=C/c2cc(Br)c(O)c(Br)c2)O1 [RUBROLIDE A] |
| 156 | NC(=O)c1cc(Br)c(Br)[nH]1 |
| 170 | O=C1NC(=S)N/C1=C\c1ccccc1 |
| 136 | C[C@@]12CCC(=O)c3coc(c31)C(=O)c1cc3cccc(OS(=O)(=O)O)c3cc12 |
| 187 | COc1cc(/C=C2\NC(=S)NC2=O)ccc1O |
